Test results as given in patent US8344118B2, “Preparation and isolation of 5′ capped MRNA” (Applied Biosystems, LLC, priority 2007, dated 2013).

Assays:
[1] = test system: phage RNA polymerase such as T7, T3 or SP6; conditions: m^7GpppG to GTP (4:1); cited from earlier work
T7 RNA polymerase = T7 RNA polymerase (Escherichia phage T7, UniProt P00573); conditions: linearized pTri β actin vector template, 37° C. for 2 hr, 20% dPAGE gel, FIG. 9
T7 RNA polymerase, sequence (P00573 whole entry): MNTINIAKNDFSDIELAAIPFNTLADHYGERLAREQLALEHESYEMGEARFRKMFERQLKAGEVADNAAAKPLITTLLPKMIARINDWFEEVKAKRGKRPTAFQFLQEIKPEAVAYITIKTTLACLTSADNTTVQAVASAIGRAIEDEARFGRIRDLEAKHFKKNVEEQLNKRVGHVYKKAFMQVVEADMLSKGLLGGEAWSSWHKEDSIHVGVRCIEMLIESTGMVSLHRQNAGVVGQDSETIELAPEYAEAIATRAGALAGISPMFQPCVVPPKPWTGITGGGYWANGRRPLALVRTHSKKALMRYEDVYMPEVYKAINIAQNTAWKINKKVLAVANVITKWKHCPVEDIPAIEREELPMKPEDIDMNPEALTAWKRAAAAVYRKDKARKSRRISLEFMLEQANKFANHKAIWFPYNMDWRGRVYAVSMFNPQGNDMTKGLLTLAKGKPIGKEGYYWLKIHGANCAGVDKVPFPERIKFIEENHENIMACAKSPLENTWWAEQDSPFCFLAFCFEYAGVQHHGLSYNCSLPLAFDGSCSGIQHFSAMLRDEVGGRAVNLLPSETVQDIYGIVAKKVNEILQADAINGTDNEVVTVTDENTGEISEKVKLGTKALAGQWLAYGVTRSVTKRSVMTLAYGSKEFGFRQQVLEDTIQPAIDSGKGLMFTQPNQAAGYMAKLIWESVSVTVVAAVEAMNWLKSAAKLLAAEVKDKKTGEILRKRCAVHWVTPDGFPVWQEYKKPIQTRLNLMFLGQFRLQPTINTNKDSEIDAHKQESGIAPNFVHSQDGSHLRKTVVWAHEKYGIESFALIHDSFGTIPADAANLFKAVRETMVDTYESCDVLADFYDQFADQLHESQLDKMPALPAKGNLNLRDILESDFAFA
Protocol: A Gel Shift assay was performed by using the MAXIscript™ kit (Ambion, Inc.) following the manufacturer's protocol. The assay determines if the modified cap analogs were substrates for T7 RNA polymerase. Typical 20 μL of T7 RNA polymerase transcriptions contained the following reagents at the final concentrations indicated: linearized pTri β actin vector template, 0.5 μg; ATP, 2 mmol; GTP, 0.4 mmol; 1.6 mmol each CTP and UTP, in a separate reaction; 10× reaction buffer, 4×; T7 RNA polymerase, 50 units/μL; (α-^32P) ATP, 800 (Ci/mmol); and DEPC water. The control reaction was a normal in vitro transcription reaction, in which no cap analog was added. The transcription reactions were incubated at 37° C. for 2 hr, after which the reaction mixtures were then applied to a 20% dPAGE gel. The assay detects specific structure or size changes described as gel shifts. When structure change or size change occurs it creates complexes that migrate slower during gel electrophoresis than the original complex.

| Compound | capped RNA [1] [%] | capped RNA (T7 RNA polymerase) |
| --- | --- | --- |
| Cn1c[n+]([C@@H]2O[C@H](COP(=O)(O)OP(=O)(O)OP(=O)(O)OC[C@H]3O[C@@H](n4cnc5c(=O)[nH]c(N)nc54)[C@H](O)[C@@H]3O)[C@@H](O)[C@H]2O)c2nc(N)[nH]c(=O)c21 [m^7GpppG, m^7G(5′)ppp(5′)G] | 80 |  |
| NCC=Cc1cn(C2OC(COP(=O)(O)OP(=O)(O)OP(=O)(O)OP(=O)(O)OCC3OC(n4cnc5c(=O)[nH]c(N)nc54)C(O)C3O)C(O)C2O)c(=O)[nH]c1=O (centres unmarked) [Compound 1, G[5′]pppp[5′]U-Aminoallyl] |  | about 65% |
